Experiments:
[1] = test system: bone marrow cells of Paget's disease of bone patients; test: Osteoclast formation induced by 1α,25-dihydroxyvitamin D3 in bone marrow cultures from Paget's disease of bone patients; assay type: cell-based, human; details: for osteoclast formation (average number of cells ± S.D.): Paget's marrow
Excerpt: (§1) Mononuclear cells were fractionated from bone marrow cells of healthy normal persons according to a method of Kurihara et al. (Endocrinology, vol. 126, 2733-2741 (1990)). Briefly, bone marrow cells were obtained from normal persons, a mononuclear cell fraction was collected by Hypaque-Ficoll density gradient centrifugation, the cell fraction was washed with α-Minimal Essential Media (α-MEM) 3 times, and the cells dispersed in α-MEM containing 10% fetal bovine serum. This mononuclear cell suspension was seeded in 100-mm tissue culture plates, the culture plate was kept for 90 minutes at 37° C. in a 4% CO2-air atmosphere, and the non-adherent cells were collected. The non-adherent mononuclear cells were dispersed into α-MEM culture medium containing 20% horse serum at 10^6 cells/ml, the cell suspension was seeded into 96-well multi plates at 100 μl/well.
The capacity of the compound 11 (23S isomer) to inhibit osteoclast formation induced by 1α,25-dihydroxyvitamin D3 was evaluated as follows: Various concentrations of 1α,25-dihydroxyvitamin D3, various concentrations of compound 11 ([…]) solution were added to each well. The culture medium was replaced twice weekly and the cultures continued for 3 weeks at 37° C. in an atmosphere of 4% CO2-air. Osteoclasts that formed were identified by their capacity to bind the 23C6 antibody. The nuclei were counter stained with methyl green. Cells that reacted with the 23C6 antibody and had 3 or more nuclei were scored as osteoclasts.
Bone marrow cells were obtained from involved bones of patients with Paget's disease of bone and processed and cultured as described above for normal bone cells. The cultures were treated in an identical manner with 1α,25-dihydroxyvitamin D3 and/or compound 11 (23S isomer) as described in Example 1.
Bone marrow cultures were performed as described in Example 1, with the exception that different types of vitamin D antagonists were added to at varying concentrations to bone marrow cultures stimulated with 1α,25-dihydroxyvitamin D3. The bone marrow cells were taken from involved bones of patients with Paget's disease of bone and the cultures were performed as described in Example 2. There are two diastereoisomers, based on the asymmetric carbon at the 23 position, in compounds 13 and 16. The isomer having the shorter retention time on reverse phase HPLC analysis was the more polar isomer and the isomer having the longer retention time was the less polar isomer.

[2] = test system: bone marrow cells of normal persons; test: Osteoclast formation induced by 1α,25-dihydroxyvitamin D3 in normal human bone marrow cultures; assay type: cell-based; details: for osteoclast formation (average number of cells ± S.D.): compound alone, normal marrow, 3 weeks
Excerpt: as §1, with “μl/well. The capacity of the compound 11 (23S isomer) to inhibit osteoclast formation induced by 1α,25-dihydroxyvitamin D3 was evaluated as follows: Various concentrations of 1α,25-dihydroxyvitamin D3, various concentrations of compound 11 (23S isomer) or a combination of 10^−8 M 1α,25-dihydroxyvitamin D3 solution and various concentrations of compound 11 (23S isomer) solution were added to each well. The culture medium was replaced twice weekly and the cultures continued for 3 weeks at 37° C. in an atmosphere of 4% CO2-air. Osteoclasts that formed were identified by their capacity to bind the 23C6 antibody. The nuclei were counter stained with methyl green. Cells that reacted with the 23C6 antibody and had 3 or more nuclei were scored as osteoclasts.” for “μl/well.”

vitamin D deficient rats = test: Bone resorption (serum calcium) induced by 1α,25-dihydroxyvitamin D3 in vitamin D deficient rats; assay type: in vivo, Wistar rats
Method: Four-week-old male Wistar rats purchased from Japan SLC (Shizuoka, in Japan) were used. The animals were kept in wire-net cages (three animals in a cage) and raised for 7 weeks with free access to a vitamin D-deficient diet (Ca, 0.0036%; P, 0.3%; Harlan Taklad Research Diet, Madison, Wis., U.S.A.) and drinking water (well water treated with hypochlorite of […]±0.2 ppm). Temperature was kept at 23±1° C. and the humidity at 55±10%. Five animals were used for each experimental group. The control animals received intravenously administered solvent (5% ethanol-0.1% Triton X-100-physiological saline solution), and the experimental animals were intravenously administered 1α,25-dihydroxyvitamin D3 at a dose of 0.25 μg/kg. For animals receiving vitamin D derivatives, compound 11 (23S isomer) was administered intravenously at a dose of 2 μg/kg, 10 μg/kg or 50 μg/kg, or the compound 11 (23S isomer) with or without 1α,25-dihydroxyvitamin D3 at a dose of 0.25 μg/kg. The volume was 2 ml/kg for each animal. 24 hours after administration, a blood sample was taken out from abdominal descending aorta under ether anesthesia, the serum was collected according to conventional methods, and the calcium concentration in the serum was measured. The calcium concentrations were measured according to OCPC-method (Am. J. Clin. Pathol., vol. 45, 290-296 (1966)) with an autoanalyzer (type 7070, manufactured by Hitachi Seisakusho).

[3] = 10^−10 M 1α,25-dihydroxyvitamin D3 + compound 10^−7 M
[4] = 10^−10 M 1α,25-dihydroxyvitamin D3 + compound 10^−8 M
[5] = 10^−10 M 1α,25-dihydroxyvitamin D3 + compound 10^−9 M
[6] = compound alone, Paget's marrow cultures

Row | Structure (SMILES) | osteoclast formation (average number of cells ± S.D.) [1, 3] | osteoclast formation (average number of cells ± S.D.) [1, 4] | osteoclast formation (average number of cells ± S.D.) [1, 5] | induction of osteoclast formation by the compound alone (in words) ([1]; Paget's marrow cultures) | osteoclast formation (average number of cells ± S.D.) ([1]; compound alone, 10^−7 M) | osteoclast formation (average number of cells ± S.D.) ([1]; compound alone, 10^−8 M) | osteoclast formation (average number of cells ± S.D.) ([1]; compound alone, 10^−9 M) | effect on basal osteoclast formation (in words) [1, 6] | also measured
1 | C=C1CC(CC(C)C2CCC3C(=CC=C4CC(O)CC(O)C4=C)CCCC32C)CC1=O (single isomer, unassigned; more polar) [compound 13 (more polar isomer)] | 31 ± 5 cells | 79 ± 9 cells | 152 ± 12 cells | did not induce the osteoclast formation | 3 ± 4 cells | 25 ± 4 cells | 44 ± 5 cells | inhibited basal osteoclast formation | 
2 | C=C1/C(=C\C=C2/CCC[C@]3(C)[C@@H]([C@H](C)CCCC(C)(C)O)CC[C@@H]23)C[C@@H](O)C[C@@H]1O [1α,25-dihydroxyvitamin D3, reference compound] |  |  |  |  | 205 ± 6 cells | 206 ± 16 cells | 211 ± 25 cells |  | osteoclast formation at 10^−10 M (in words) ([2]; 10^−10 M, bone marrow cells of normal persons): is not induced; osteoclast formation (average number of cells ± S.D.) ([2]; 10^−7 M): 91 ± 7 cells; osteoclast formation (average number of cells ± S.D.) ([2]; 10^−8 M): 87 ± 12 cells; osteoclast formation (average number of cells ± S.D.) ([2]; 10^−9 M): 34 ± 6 cells; osteoclast formation (average number of cells ± S.D.) ([2]; 10^−10 M): 11 ± 2 cells; osteoclast formation (average number of cells ± S.D.) ([2]; 10^−11 M): 13 ± 3 cells; concentration at which osteoclast formation was maximal ([2]; normal marrow cultures): 10^−8 M; serum calcium concentration compared to controls (in words) (vitamin D deficient rats; 0.25 μg/kg, 24 hours after receiving): significant increased serum calcium concentration; serum Ca concentration (vitamin D deficient rats; compound alone, 0.25 μg/kg intravenously, 24 hours after administration): 5.42 ± 0.12 mg/100 ml serum; osteoclast formation at 10^−10 M (in words) ([1]; 10^−10 M, bone marrow cells from Paget's disease of bone patients): is induced; lowest concentration inducing osteoclast formation ([1]; Paget's marrow cultures): 10^−11 M; osteoclast formation (average number of cells ± S.D.) ([1]; compound alone, 10^−10 M): 180 ± 15 cells; osteoclast formation (average number of cells ± S.D.) ([1]; compound alone, 10^−11 M): 134 ± 14 cells
3 | C=C1CC(CC(C)C2CCC3C(=CC=C4CC(O)CC(O)C4=C)CCCC32C)OC1=O (stereo not drawn) [compound 11 (23R isomer)] | 18 ± 9 cells | 70 ± 12 cells | 145 ± 8 cells | did not induce the osteoclast formation | 1 ± 1 cells | 20 ± 3 cells | 32 ± 3 cells | inhibited basal osteoclast formation | 
4 | C=C1CC(CC(C)C2CCC3C(=CC=C4CC(O)CC(O)C4=C)CCCC32C)CC1=O (single isomer, unassigned; less polar) [compound 13 (less polar isomer)] | 14 ± 1 cells | 70 ± 2 cells | 127 ± 4 cells | did not induce the osteoclast formation | 1 ± 1 cells | 6 ± 2 cells | 7 ± 1 cells | inhibited basal osteoclast formation | 

Source: US20040019024A1, “Use of vitamin d derivatives as bone resorption inhibitors” (priority 2000, published 2004)
